In patent publication US20160143917A1, “COMPOSITIONS AND METHODS FOR MODULATING HIV ACTIVATION” (priority 2013, published 2016):
Several values for one entry are separate records, joined by “and”; a condition that tells them apart may be missing. Equal entries are not always repeated.

Legend:
[1] = system: latently HIV provirus infected Jurkat (T-cell) clone 2D10 cells carrying a GFP-expressing provirus; assay: Reactivation of latent HIV provirus (GFP expression) in 2D10 cells; assay type: cell-based, human; conditions: for Un-stimulated: drug alone, no TNFα or SAHA, drug concentration (Fulvestrant 2.5 μM, Y-134 5 μM, Endoxifen 5 μM, MPP 5 μM, Tamoxifen 10 μM, Gossypol 5 μM, PPT 100 μM, Stilbestrol 5 μM); for 250 nM SAHA drug: drug at row concentration plus sub-optimum 250 nM SAHA; for +100 pg/ml TNFα drug: drug plus sub-optimum 100 pg/ml TNFα; for +400 pg/ml TNFα drug: pre-treatment with agonist at row concentration plus 400 pg/ml TNFα; for 2 μM SAHA drug: pre-treatment with agonist at row concentration plus 2 μM SAHA
Excerpt: Still other ESR-1 antagonists can be identified and screened for potential induction of latent HIV activation by using cell based assays described in Examples 1 and 2. For example to determine whether a composition or potential ESR-1 antagonist can induce HIV-1 provirus re-activation in latently infected primary T-cells (Th17), the ESR-1 antagonist can be administered to latently HIV provirus infected Jurkat (T-cell) clone 2D10 cells carrying a GFP-expressing provirus. The level of GFP expression can then be measured to determine activation. In another example, the ESR-1 antagonist can be administered to the latently infected primary T-cells (Th17) and phosphorylation of serine 175 of CDK9 can be measured by flow cytometry analysis. Along with CDK9 pSer175, expression of viral protein Nef can also measured.
FIG. 2 illustrates the ESR1 antagonist Fulvestrant weakly stimulates 2D10 reactivation and sensitizes the cells to reactivation by sub-optimal concentrations of TNF-α. A. Unstimulated cells showing the low basal activation levels of approximately 2%. […] C. Activation of cells with 2.5 μM Fulvestrant.
To further validate involvement of ESR-1 in latency maintenance program, we have examined a series of antagonists and agonist as represented in Table 2 on 2D10. In all the cases it was observed that blocking of ESR-1 by antagonist either constitutively re-activate or sensitizes the pro-virus to sub-optimum dose of TNFα (100 pg/ml) and SAHA (250 nM).

[2] = system: Latently HIV-1 infected Th17 primary cells; assay: Reactivation of latent provirus in primary Th17 cells, HIV Nef protein expression; assay type: cell-based; conditions: single agent; untreated cells 2.54%
Excerpt: FIG. 3 illustrates latently infected primary T-cells are reactivated by the ESR1 antagonist, Fulvestrant (ICI.182780). […] B. Stimulation of the latently infected cells through the T-cell receptor using antibodies to CD3/CD28 re-activated 60.82% of the cells in the population. C. […] Method: Naive T-cells from healthy donors were activated using anti-CD3/[…] antibodies and polarized in the direction of primary Th-17 cells using a cocktail of cytokines. The exponentially growing cells were infected with HIV-1 virus containing d2EGFP fused to CD8a for surface expression of the reporter gene. The CD8a positive cells were purified using CD8a antibody conjugated magnetic beads. The HIV-1 infected cells were allowed to become quiescent by culturing in media containing minimal levels of IL2.

[3] = system: CHME5/HIV cells, a latently infected Fetal Microglia Cell line; assay: Reactivation of latent HIV provirus (GFP expression) in microglial cells; assay type: cell-based
Procedure: FIGS. 5(A-D) illustrate histograms showing GFP expression in CHME5/HIV cells, a latently infected Fetal Microglia Cell line carrying a GFP-expressing provirus, that are: (A) unstimulated; (B) administered a suboptimal dose of TNFα (10 ng/ml); (C) administered […] Fulvestrant; or (D) pre-treated with Fulvestrant and administered a suboptimal dose of TNFα.
A. Unstimulated CHME5/HIV cells, a latently infected Fetal Microglia Cell line. Basal activation levels were 2.31%. B. Reactivation of CHME5/HIV cells with a suboptimal dose of TNFα (10 ng/ml) induced 13.96% of the proviruses. C. […] These observations indicate that pro-virus reactivation by modulating the ESR-1 is specific for T-cell.

[4] = system: latently infected primary T-cells (Th17); assay: CDK9 pSer175 and Nef by flow cytometry in latently infected primary T-cells; assay type: cell-based
Procedure: At the time of HIV-1 provirus re-activation one of the key marker is phosphorylation of serine 175 amino acid residue of CDK9 (CDK9 pSer175). To determine the status of HIV-1 provirus re-activation in latently infected primary T-cells (Th17) by ESR-1 antagonist Tamoxifen, phosphorylation of serine 175 of CDK9 was measured by flow cytometry analysis. Along with CDK9 pSer175, expression of viral protein Nef was also measured. […] Keeping that in mind, latently infected primary T-cell was treated with tamoxifen and SAHA alone or in combination where sub-optimum dose of (250 nM) was used (FIGS. 11 B, D, E). […] Therefore re-activation of latent provirus in Gossypol and/or SAHA treated primary T-cell was also examined (FIGS. 11 C-D).

CC/C(=C(\c1ccc(O)cc1)c1ccc(OCCNC)cc1)c1ccccc1 [Endoxifen]
Un-stimulated [1]: 9.70%
250 nM SAHA drug [1]: 26.63%
+100 pg/ml TNFα drug [1]: 29.31%

C[C@]12CC[C@@H]3c4ccc(O)cc4C[C@@H](CCCCCCCCC[S+]([O-])CCCC(F)(F)C(F)(F)F)[C@H]3[C@@H]1CC[C@@H]2O (stereo partly shown) [Fulvestrant]
reactivation of latent provirus (GFP) ([1]; 2.5 μM Fulvestrant alone): small but significant reactivation
GFP levels ([1]; 50 μM Fulvestrant alone): 8.05%
Un-stimulated [1]: 2.68%
250 nM SAHA drug [1]: 17.78%
+100 pg/ml TNFα drug [1]: 41.01%
reactivation of latent population (GFP) ([1]; one hour pre-treatment with Fulvestrant, then 100 pg/ml TNFα): 41.01%
reactivation of pro-virus (GFP) ([1]; pre-treatment with Fulvestrant (50 μM) for one hour, then 250 nM SAHA): 18.80%
latent proviruses/cells re-activated, measured by expression of the HIV Nef protein [2]: 25.27%
stimulation of CHME5/HIV cells (GFP) ([3]; 2.5 mM Fulvestrant alone): did not stimulated CHME5/HIV cells beyond basal levels
sensitization towards TNFα stimulation (GFP) ([3]; pre-treatment with Fulvestrant, then suboptimal TNFα (10 ng/ml)): did not sensitize the latent population towards TNFα stimulation

Cc1cc2c(C(C)C)c(O)c(O)c(C=O)c2c(O)c1-c1c(C)cc2c(C(C)C)c(O)c(O)c(C=O)c2c1O [Gossypol]
proviral re-activation (GFP) ([1]; 5 μM Gossypol alone): 30.58%
re-activation (GFP) ([1]; 5 μM Gossypol combined with 100 pg/ml TNFα (sub-optimum)): 60.15%
Un-stimulated [1]: 30.58%
+100 pg/ml TNFα drug [1]: 60.15%
pro-virus re-activation (GFP) ([3]; Gossypol alone): 1.60%
re-activation of pro-virus (GFP) ([3]; Gossypol combined with 10 ng/ml TNFα (sub-optimum)): 10.24%

Cc1c(-c2ccc(O)cc2)nn(-c2ccc(O)cc2)c1-c1ccc(OCCN2CCCCC2)cc1 [MPP]
Un-stimulated [1]: 14.49%
250 nM SAHA drug [1]: 31.14%
+100 pg/ml TNFα drug [1]: 39.60%

CCCc1c(-c2ccc(O)cc2)nn(-c2ccc(O)cc2)c1-c1ccc(O)cc1 [PPT, 4,4′,4″-(4-Propyl-[1H]-pyrazole-1,3,5-triyl)trisphenol]
reactivation of latently infected cells (GFP) ([1]; 100 μM PPT alone): not reactivated
Un-stimulated [1]: 3.57%
activation of the cells (GFP) ([1]; pre-treatment with PPT, then SAHA (1 μM)): 8.77%
+400 pg/ml TNFα drug [1]: 13.41%
2 μM SAHA drug [1]: 6.76%
reactivation induced by TNFα (GFP) ([1]; pretreatment with PPT for one hour, then 400 pg/ml TNFα): 13.41%

O=C(CCCCCCC(=O)Nc1ccccc1)NO [SAHA, suberoylanilide hydroxamic acid]
cells induced (GFP) ([1]; 250 nM SAHA alone (sub-optimum)): 5.25%
re-activation of the population (GFP) ([1]; 1 μM SAHA alone): 65.87%
250 nM SAHA ([1]; Control (2D10), 250 nM SAHA alone, no ESR-1 drug): 14.34%
2 μM SAHA ([1]; Control (2D10), 2 μM SAHA alone, no ESR-1 drug): 65.43% and 71.83%

CC/C(=C(/CC)c1ccc(O)cc1)c1ccc(O)cc1 [Stilbestrol]
Un-stimulated [1]: 6.20%
+400 pg/ml TNFα drug [1]: 33.70%
2 μM SAHA drug [1]: 4.34%
effect of agonist pre-treatment on provirus re-activation ([1]; pre-treatment, optimum dose of TNFα (400 pg/ml) and SAHA (2 μM)): block the re-activation of latent pro-virus

CC/C(=C(\c1ccccc1)c1ccc(OCCN(C)C)cc1)c1ccccc1 [Tamoxifen]
re-activation of latent provirus (CDK9 pSer175 and Nef expression) ([4]; drug alone): failed to re-activate latent provirus
re-activation of latent provirus (CDK9 pSer175 and Nef expression) ([4]; drug combined with sub-optimum SAHA (250 nM)): elevated expression of both CDK9 pSer175 and Nef
Un-stimulated [1]: 12.09%
250 nM SAHA drug [1]: 22.50%
+100 pg/ml TNFα drug [1]: 33.03%

C[C@]12CC[C@@H]3c4ccc(O)cc4CC[C@H]3[C@@H]1CC[C@@H]2O [β-estradiol]
stimulation of latent HIV proviruses (GFP) ([1]; estrogen-depleted media, 2 ng/ml β-estradiol alone): does not stimulate latent HIV proviruses
responsiveness to TNFα (GFP) ([1]; estrogen-depleted media, 2 ng/ml β-estradiol plus 400 pg/ml TNFα): did not enhance responsiveness

TNFα
re-activation of latent provirus (GFP) ([1]; 100 pg/ml TNFα alone (sub-optimal)): 15.95%
proviral re-activation (GFP) ([1]; 400 pg/ml TNFα alone): 70.88%
+100 pg/ml TNFα ([1]; Control (2D10), 100 pg/ml TNFα alone, no ESR-1 drug): 16.15%
400 pg/ml TNFα ([1]; Control (2D10), 400 pg/ml TNFα alone, no ESR-1 drug): 70.88% and 88.12%
proviruses stimulated (GFP) ([1]; phenol-red free media, 10% charcoal-stripped FBS (estrogen-depleted), 400 pg/ml TNFα alone): 79.59%
proviruses induced (GFP) ([3]; 10 ng/ml TNFα alone (suboptimal), basal 2.31%): 13.96%
